We go through four compounds from PMC9416150, “Development and Validation of [^3H]OF-NB1 for Preclinical Assessment of GluN1/2B Candidate Drugs” (Pharmaceuticals, 2022).

Data set [1] deals with σ1R. Particulars: cited from earlier work.
Data set [2] addresses GluN1/2B. As to conditions: cited from earlier work.
Details of data set [3]: method as in PMID 35710735. Particulars: n = 4; cited from earlier work.
The target in data set [4] is T1, σ1R (Rattus norvegicus, UniProt Q9R0C9). Particulars: Wistar rats; for %RO calculated / %RO predicted: σ1R occupancy, [18F]fluspidine. The method, then:
A series of doses were investigated, ranging from 0.05–15 mg/kg. […] There have been efforts to develop ligands with dual GluN1/2B and σ1R activity. Nonetheless, for the purpose of developing selective GluN1/2B ligands, one has to consider fundamentally reformulating the development strategy.
All non-aqueous reactions were performed under N2 atmosphere using flame-dried glassware and standard syringe/septa methods unless stated otherwise. Reactions were magnetically stirred and further monitored by thin layer chromatography (TLC) performed on Merck TLC aluminum sheets (silica gel 60 F254). TLC spots were visualized using UV light (λ = 254 nm) or through staining with KMnO4 solution. Chromatographic purification of products was performed using SiliaFlash P60 silica gel (Silicycle) for preparative column chromatography with a particle size of 40–63 μm (230–400 mesh). Reactions at −78 °C were cooled in a dry ice/acetone bath and reactions at 0 °C were cooled in an ice/water bath. Chemicals were purchased from ABCR, Acros Organics, Amatek Chemical, Fluorochem, Merck, Perkin Elmer and Sigma Aldrich and used without further purification. Solvents for TLC, extraction and flash column chromatography were of technical grade. Extra dry solvents for all non-aqueous reactions were supplied by Acros Organics (puriss., dried over molecular sieves, water content <0.005%). Deuterated solvents (D, 99.9%) were purchased from Cambridge Isotope Laboratories, Inc. NMR spectra of compounds 3, 7 and 8 are presented in the Supplementary Material (Section S1). Tritium labeling was performed by RC Tritec AG (Teufen, Switzerland). […] Positron emission tomography (PET) imaging was performed in Wistar rats according to a previously published procedure.
Standard uptake values (SUVs) are averaged from 0–90 min.

A further data set concerns the target σR. As to conditions: read-out: Ki (σ1R); published value using the σR ligand [3H]3-PPP; cited from earlier work.
Data set [5] relates to GluN1/2B. Particulars: cited from earlier work. The source holds these as a separate data set.
The target of data set [6] is T1, σ1R. Kind of data set: In vitro σ1R competitive binding assay with (+)-[3H]pentazocine. Details: from tissue; host or cells: brain of living Wistar rats (in vivo PET). As to conditions: radioligand (+)-[3H]pentazocine; Wistar rat brain homogenates; 37 °C. The source says: The mixtures were quenched with buffer and filtered through Whatman® GF/C 25 mm filters soaked with 0.05% PEI solution.

For another data set, the target named is σ2R. More on the design: method as in earlier work. Particulars: ref 18 (Hashimoto 2015); cited from earlier work.
Data set [7] has as its target T2, GluN1/2B (Rattus norvegicus, UniProt P35439+Q00960).
T2 construct: from tissue; host or cells: Wistar rat whole brain homogenate
Kind of data set: In vitro GluN1/2B competitive binding assay with [3H]OF-NB1. Particulars: radioligand [3H]OF-NB1; Wistar rat brain homogenates; 25 °C. The procedure:
(§1) Competitive binding assays were performed as previously reported. […] A dilution series of the test ligands was prepared ranging from 30 µM to 300 pM. […] Each measurement vial contained 0.5 mg/mL of brain homogenate proteins, 20 µL of cold ligand, 10 µL of radioligand and was diluted to 200 µL with HEPES buffer. The vials were incubated at 25 °C and 110 rpm for 1 h. The mixtures were quenched with buffer and filtered through Whatman® GF/C 25 mm filters soaked with 0.05% PEI solution. Filters were washed twice with cold buffer and placed in scintillation vials. Scintillation vials were filled with 2 mL Ultima Gold^TM LSC cocktail and measured in a Beckmann LS6500 liquid scintillator counter.

For data set [8], the target named is T2, GluN1/2B. As to the kind of experiment: In vitro GluN1/2B competitive binding assay with [3H]ifenprodil. Particulars: radioligand [3H]ifenprodil; Wistar rat brain homogenates; 25 °C. The method, then: as §1

Where two headings read alike, the source gives them in different places.

T1 sequence (Q9R0C9 whole entry): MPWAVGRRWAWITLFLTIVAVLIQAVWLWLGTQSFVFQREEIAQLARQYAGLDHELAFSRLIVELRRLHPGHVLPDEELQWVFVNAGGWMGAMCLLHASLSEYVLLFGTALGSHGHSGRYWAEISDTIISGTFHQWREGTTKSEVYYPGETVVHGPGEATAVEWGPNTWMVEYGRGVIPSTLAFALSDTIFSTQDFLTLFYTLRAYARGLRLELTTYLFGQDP
T2 sequence (Q00960 27-1482, other chains not shown): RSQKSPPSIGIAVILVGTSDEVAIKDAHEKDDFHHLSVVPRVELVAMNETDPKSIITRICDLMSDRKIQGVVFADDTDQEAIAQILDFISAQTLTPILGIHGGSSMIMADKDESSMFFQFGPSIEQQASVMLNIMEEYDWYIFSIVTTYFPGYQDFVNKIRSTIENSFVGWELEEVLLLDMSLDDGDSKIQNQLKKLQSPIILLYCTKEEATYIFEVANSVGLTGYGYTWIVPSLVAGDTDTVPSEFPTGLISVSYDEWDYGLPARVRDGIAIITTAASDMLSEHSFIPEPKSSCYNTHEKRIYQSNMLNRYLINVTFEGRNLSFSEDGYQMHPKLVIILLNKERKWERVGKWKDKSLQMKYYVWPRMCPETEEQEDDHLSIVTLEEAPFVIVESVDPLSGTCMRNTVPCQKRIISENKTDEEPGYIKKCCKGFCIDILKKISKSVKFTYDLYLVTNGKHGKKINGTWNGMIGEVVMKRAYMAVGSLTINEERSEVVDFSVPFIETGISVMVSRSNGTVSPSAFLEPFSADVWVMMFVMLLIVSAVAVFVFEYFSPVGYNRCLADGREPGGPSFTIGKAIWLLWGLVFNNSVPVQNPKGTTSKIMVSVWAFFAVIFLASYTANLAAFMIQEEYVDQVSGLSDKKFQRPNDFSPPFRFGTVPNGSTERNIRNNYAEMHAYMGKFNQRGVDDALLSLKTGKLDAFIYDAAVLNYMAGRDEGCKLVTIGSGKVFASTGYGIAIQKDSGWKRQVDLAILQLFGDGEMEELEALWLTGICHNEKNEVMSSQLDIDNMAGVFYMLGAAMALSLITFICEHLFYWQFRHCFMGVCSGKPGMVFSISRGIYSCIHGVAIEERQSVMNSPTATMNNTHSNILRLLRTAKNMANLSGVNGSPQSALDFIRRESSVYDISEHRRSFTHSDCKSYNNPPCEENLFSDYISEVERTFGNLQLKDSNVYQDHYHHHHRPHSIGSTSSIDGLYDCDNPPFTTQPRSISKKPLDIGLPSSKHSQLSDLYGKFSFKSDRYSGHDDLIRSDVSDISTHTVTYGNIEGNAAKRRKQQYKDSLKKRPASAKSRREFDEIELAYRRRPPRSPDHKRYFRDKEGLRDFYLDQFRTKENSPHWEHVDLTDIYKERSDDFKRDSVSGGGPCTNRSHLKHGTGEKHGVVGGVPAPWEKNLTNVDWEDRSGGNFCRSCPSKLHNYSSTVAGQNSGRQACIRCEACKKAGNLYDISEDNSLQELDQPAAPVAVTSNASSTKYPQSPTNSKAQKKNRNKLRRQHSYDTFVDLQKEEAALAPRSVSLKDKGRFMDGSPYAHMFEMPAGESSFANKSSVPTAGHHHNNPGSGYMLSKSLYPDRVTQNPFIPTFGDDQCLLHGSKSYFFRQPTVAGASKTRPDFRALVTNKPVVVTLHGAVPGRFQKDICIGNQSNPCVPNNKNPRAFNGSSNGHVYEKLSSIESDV

Regarding `Oc1ccc2c(c1)CCN(CCCCc1ccccc1F)CC2O` (stereo not shown) [OF-NB1], the inhibition constant (Ki) on σ1R [1] (ref 22 (Ahmed et al. 2021)) is 410 nM; at GluN1/2B [2] (ref 22 (Ahmed et al. 2021)), 10.4 ± 4.7 nM. Further, the “log D7.4” value in [3] is 2.05 ± 0.08.

For the compound `C[C@@H]([C@@H](O)c1ccc(O)cc1)N1CCC(O)(c2ccccc2)CC1` [CP-101,606], the inhibitory constant (Ki) on GluN1/2B [2] (reported literature value) is 16 nM; on σR, 60 nM; on σ1R [6] it was 94 ± 6 nM. Further, the “D50 (σ1R)” value on σ1R [4] (administered dose occupying 50% of σ1Rs, [18F]fluspidine PET) amounted to 4.9 µmol/kg. Further, the “blockade of [18F]fluspidine brain uptake” value at σ1R [4] (doses 0.05–15 mg/kg) was “dose-dependent blockade”. The “%RO calculated” value on σ1R [4] (dose 0.05 mg/kg) was 3.72%; at σ1R [4] (dose 3 mg/kg), 61.9%; at σ1R [4] (dose 7 mg/kg), 71.2%; on σ1R [4] (dose 15 mg/kg), 91.2%. For the same compound, the “%RO predicted” value at σ1R [4] (dose 0.05 mg/kg) is reported as 2.43%; on σ1R [4] (dose 3 mg/kg) it was 59.2%; on σ1R [4] (dose 7 mg/kg), 77.1%; on σ1R [4] (dose 15 mg/kg), 87.8%. Further, the “D50 (GluN1/2B)” value in the data set with GluN1/2B [5] was 8.1 µmol/kg.

`CC(C(O)c1ccc(O)cc1)N1CCC(Cc2ccccc2)CC1` (stereo not shown) [[^3H]Ifenprodil]: the figures for the inhibition constant (Ki) on σ1R [1] (ref 18 (Hashimoto 2015)), on σ2R and on GluN1/2B [2] (ref 17 (Alarcon et al. 2008)) were 13 nM, 1.89 nM and 11 nM, respectively.

Turning to `COc1ccc(CCN2CCN(CCCc3ccccc3)CC2)cc1OC` [SA-4503], the Ki was above 100000 nM on GluN1/2B [7] and 51 ± 13 nM at GluN1/2B [8].

Usually Ki stands for the equilibrium dissociation constant of an inhibitor or competing ligand from its target.
